Experiments:
[1] = in vivo; cited from earlier work
[2] = test system: New Zealand White rabbits; assay: Post-mortem T1-weighted MRI after intravitreal injection of Gd-DOTA in thermoresponsive hydrogel; assay type: in vivo, rabbit; conditions: 24 h after intravitreal injection
Description: Scans were performed within one hour of sacrifice. Soluble Gd-DOTA without MP encapsulation was largely cleared from the injection site at 24 h, with only 56% and 59% signal intensity (relative to nearby muscle tissue) in the vitreous and anterior chamber, respectively. […] The spatiotemporal distribution of Gd-DOTA into the rest of the eye will also provide valuable data for future controlled release formulations of other ocular therapeutics, such as those targeting the posterior segment of the eye.

[3] = Loading and release of other drugs from microparticles embedded within the gel; assay type: physicochemical
From the text: The loading and release of other drugs (moxiflxacin and vancomycin) with the microparticles embedded within the gel has also been confirmed.

O=C([O-])CN(CCN(CC(=O)[O-])CC(=O)O)CCN(CC(=O)[O-])CC(=O)O.[Gd+3] [Gd-DTPA]
ocular half-life [1]: 28.08 min

O=C([O-])CN1CCN(CC(=O)[O-])CCN(CC(=O)O)CCN(CC(=O)[O-])CC1.[Gd+3] [Soluble Gd-DOTA, gadolinium-tetraazocyclododecanetetraacetic acid]
signal intensity relative to nearby muscle tissue, anterior chamber [2]: 59% | signal intensity relative to nearby muscle tissue, vitreous [2]: 56%

CN[C@H](CC(C)C)C(=O)N[C@H]1C(=O)N[C@@H](CC(N)=O)C(=O)N[C@H]2C(=O)N[C@H]3C(=O)N[C@H](C(=O)N[C@H](C(=O)O)c4cc(O)cc(O)c4-c4cc3ccc4O)[C@H](O)c3ccc(c(Cl)c3)Oc3cc2cc(c3O[C@@H]2O[C@H](CO)[C@@H](O)[C@H](O)[C@H]2O[C@H]2C[C@](C)(N)[C@H](O)[C@H](C)O2)Oc2ccc(cc2Cl)[C@H]1O [vancomycin]
loading and release with microparticles embedded within the gel [3]: confirmed

Brimonidine tartrate [BT]
ocular half-life [1]: 28.2 min

— US12396959B2, “Thermoresponsive hydrogel containing polymer microparticles for noninvasive ocular drug delivery” (University of Pittsburgh—Of the Commonwealth System of …, priority 2013, dated 2025)
